# Source: US8252723B2, “Substituted 1-(3-pyridinyl)pyrazol-4-ylacetic acids, processes for their preparation and their use as herbicides and plant growth regulators” (Bayer CropScience AG, priority 2006, dated 2012)
# Test system: summer wheat of the cultivar 'Triso'
# Test: Plant growth regulation test: culm stabilization of crop plants
# Type: in vivo
# Conditions: application rate of 30 to 300 g of active substance per hectare, treated at stage BBCH 31, culm length measured after ears had formed
# Experimental: With stirring, the compound of the formula (I) in question was, in the form of a water-dispersible powder, together with a surfactant (customary adjuvant at an application rate of 1 l/ha), mixed with water such that a homogenous spray liquor was formed, and applied at an application rate of 300 l of water/ha (converted).
# Seeds of summer wheat of the cultivar ‘Triso’ were sown at a depth of 1 cm in plant pots and cultivated outdoors until treatment.
# The plants were treated on a laboratory track sprayer with spray liquors of the test substances at macrostage 3 after having reached about 10% of the maximum longitudinal growth typical for the cultivar (stage BBCH 31) and, after the treatment, returned outdoors.
# After the ears had formed, the length of the culms were measured. The culm stabilization was evaluated as a percentage of the untreated control.
row,Structure (SMILES),longitudinal growth (culm length) of summer wheat
1,Cc1nn(-c2cccnc2)c(-c2ccccc2)c1CC(=O)OCC(F)=C(Cl)Cl [Example 3-101],effectively shortened
2,Cc1nn(-c2cccnc2)c(-c2ccccn2)c1CC(=O)OCC1CCCO1 (centres unmarked) [Example 3-230],effectively shortened
3,COC(=O)Cc1c(C)nn(-c2cccnc2)c1-c1ccc(C)cn1 [Example 2-113],effectively shortened
4,Cc1ccncc1-n1nc(C)c(CC(=O)O)c1-c1cccs1 [Example 1-52],effectively shortened
5,COC(=O)Cc1c(C)nn(-c2cccnc2)c1-c1cccc(C(F)(F)F)c1 [Example 2-18],effectively shortened
6,COC(=O)Cc1c(C)nn(-c2cnccc2C)c1-c1ccc(-c2ccccc2)cc1 [Example 2-41],effectively shortened
7,COC(=O)Cc1c(C)nn(-c2cccnc2)c1-c1cccc(C)c1 [Example 2-119],effectively shortened
8,COC(=O)Cc1c(C)nn(-c2cnccc2C)c1-c1cc(C)cs1 [Example 2-54],effectively shortened
9,COC(=O)Cc1c(C)nn(-c2cccnc2)c1-c1ccc(OC)cc1 [Example 2-14],effectively shortened
10,COC(=O)Cc1c(CO)nn(-c2cccnc2)c1-c1ccc(Cl)cc1 [Example 2-184],effectively shortened
11,C=C(Cl)COC(=O)Cc1c(C)nn(-c2cccnc2)c1-c1ccccn1 [Example 3-203],effectively shortened
12,COC(=O)Cc1c(C)nn(-c2cnccc2C(F)(F)F)c1-c1ccccc1 [Example 2-8],effectively shortened
13,Cc1cccc(-c2c(CC(=O)O)c(C)nn2-c2cnccc2C)c1 [Example 1-38],effectively shortened
14,Cc1nn(-c2cccnc2)c(-c2ccccc2)c1CC(=O)OC(C)C [Example 3-36],effectively shortened
15,Cc1nn(-c2cccnc2)c(-c2ccc(O)nc2)c1CC(=O)OCC1CC1 [Example 3-87],effectively shortened
16,COC(=O)Cc1c(C)nn(-c2cccnc2)c1-c1ccccn1 [Example 2-109],effectively shortened
17,C=C(Cl)COC(=O)Cc1cnn(-c2cccnc2)c1-c1ccccc1 [Example 3-207],effectively shortened
18,COC(=O)Cc1c(C)nn(-c2cnccc2C)c1-c1ccc(C(C)(C)C)cc1 [Example 2-32],effectively shortened
19,COC(=O)Cc1c(C)nn(-c2cnccc2OC)c1-c1ccc(Cl)cc1 [Example 2-35],effectively shortened
20,COC(=O)Cc1c(C)nn(-c2cccnc2)c1-c1ccc(Cl)cc1Cl [Example 2-114],effectively shortened
21,CSc1ccncc1-n1nc(C)c(CC(=O)O)c1-c1ccc(Cl)cc1 [Example 1-45],effectively shortened
22,C=C(Cl)COC(=O)Cc1c(C)nn(-c2cccnc2)c1-c1ccc(C)nc1 [Example 3-195],effectively shortened

row,Structure (SMILES),longitudinal growth (culm length) of summer wheat
1,COC(=O)Cc1c(C)nn(-c2cnccc2C)c1-c1cccs1 [Example 2-52],effectively shortened
2,Cc1nn(-c2cccnc2)c(-c2cccnc2)c1CC(=O)O [Example 1-125],effectively shortened
3,O=C(O)Cc1cnn(-c2cccnc2)c1-c1ccccc1 [Example 1-72],effectively shortened
4,C=C(Cl)COC(=O)Cc1c(C)nn(-c2cccnc2)c1-c1cc(C)cs1 [Example 3-189],effectively shortened
5,Cc1nn(-c2cccnc2)c(-c2ccc(Cl)cc2)c1CC(=O)OCC1(C)COC1 [Example 3-233],effectively shortened
6,COC(=O)Cc1c(C2CC2)nn(-c2cccnc2)c1-c1ccc(Cl)cc1 [Example 2-146],effectively shortened
7,C=CCCOC(=O)Cc1c(C)nn(-c2cccnc2)c1-c1ccccc1 [Example 3-180],effectively shortened
8,Cc1nn(-c2cccnc2)c(-c2ccccc2)c1CC(=O)OCC1CCC1 [Example 3-168],effectively shortened
9,Cc1csc(-c2c(CC(=O)O)c(C)nn2-c2cccnc2)c1 [Example 1-59],effectively shortened
10,COC(=O)Cc1c(C)nn(-c2cnccc2C)c1-c1ccc(Cl)s1 [Example 2-55],effectively shortened
11,COC(=O)Cc1c(C)nn(-c2cncc(C)c2)c1-c1ccc(Cl)cc1 [Example 2-51],effectively shortened
12,COC(=O)Cc1c(-c2ccccc2)nn(-c2cccnc2)c1-c1ccccc1 [Example 2-1],effectively shortened
13,Cc1ccncc1-n1nc(C)c(CC(=O)O)c1-c1cccc(C(F)(F)F)c1 [Example 1-19],effectively shortened
14,CC#CCOC(=O)Cc1c(C)nn(-c2cccnc2)c1-c1ccccc1 [Example 3-117],effectively shortened
15,Cc1cc(C)cc(-c2c(CC(=O)O)c(C)nn2-c2cccnc2)c1 [Example 1-43],effectively shortened
16,Cc1nn(-c2cnccc2[S+](C)[O-])c(-c2ccccc2)c1CC(=O)O (centres unmarked) [Example 1-71],effectively shortened
17,Cc1nn(-c2cccnc2)c(-c2ccc(Cl)cc2)c1CC(=O)OCC1CCCCC1 [Example 3-177],effectively shortened
18,COc1ccc(-c2c(CC(=O)O)c(C)nn2-c2cccnc2)cn1 [Example 1-62],effectively shortened
19,Cc1csc(-c2c(CC(=O)OCC3CC3)c(C)nn2-c2cccnc2)c1 [Example 3-85],effectively shortened
20,COC(=O)Cc1c(C)nn(-c2ccc(Cl)nc2)c1-c1ccccc1 [Example 2-7],effectively shortened
21,CC(C)=CCOC(=O)Cc1c(C)nn(-c2cccnc2)c1-c1ccccc1 [Example 3-152],effectively shortened
22,COC(=O)Cc1c(C)nn(-c2cccnc2)c1-c1ccccc1Cl [Example 2-31],effectively shortened

row,Structure (SMILES),longitudinal growth (culm length) of summer wheat
1,COC(=O)Cc1c(C)nn(-c2cnccc2C)c1-c1ccc(Cl)c(Cl)c1 [Example 2-20],effectively shortened
2,Cc1nn(-c2cccnc2)c(-c2ccco2)c1CC(=O)O [Example 1-4],effectively shortened
3,COC(=O)Cc1c(C)nn(-c2cccnc2)c1-c1ccc(C)nc1 [Example 2-128],effectively shortened
4,COC(=O)Cc1c(C)nn(-c2cccnc2)c1-c1cc(C)cs1 [Example 2-59],effectively shortened
5,COc1ccc(-c2c(CC(=O)OCC3CC3)c(C)nn2-c2cccnc2)cn1 [Example 3-86],effectively shortened
6,Cc1nn(-c2cccnc2)c(-c2ccc(F)cc2)c1CC(=O)O [Example 1-120],effectively shortened
7,Cc1nn(-c2cccnc2)c(-c2ccc(C(F)(F)F)cc2)c1CC(=O)O [Example 1-28],effectively shortened
8,Cc1nn(-c2cccnc2)c(-c2ccc(Cl)c(C(F)(F)F)c2)c1CC(=O)O [Example 1-47],effectively shortened
9,C#CCOC(=O)Cc1c(C)nn(-c2cccnc2)c1-c1ccc(F)cc1 [Example 3-68],effectively shortened
10,Cc1nn(-c2cccnc2)c(-c2ccccc2)c1CC(=O)OCC1(C)CC1 [Example 3-105],effectively shortened
11,COC(=O)Cc1c(C)nn(-c2cnccc2C)c1-c1ccc(C)c(Cl)c1 [Example 2-49],effectively shortened
12,COC(=O)Cc1c(C)nn(-c2cccnc2)c1-c1ccc(Cl)c(Cl)c1 [Example 2-27],effectively shortened
13,C=C(Cl)COC(=O)Cc1c(C)nn(-c2cccnc2)c1-c1ccccc1 [Example 3-184],effectively shortened
14,COC(=O)Cc1c(C)nn(-c2cccnc2)c1-c1ccc(C)cc1 [Example 2-16],effectively shortened
15,COC(=O)Cc1c(C)nn(-c2cccnc2)c1-c1ccc(Cl)c(C(F)(F)F)c1 [Example 2-47],effectively shortened
16,COC(=O)Cc1c(C)nn(-c2cccnc2)c1-c1ccc(C(F)(F)F)cc1 [Example 2-28],effectively shortened
17,COC(=O)Cc1c(C)nn(-c2ccc(OC)nc2)c1-c1ccccc1 [Example 2-5],effectively shortened
18,CCc1nn(-c2cccnc2)c(-c2ccccc2)c1CC(=O)OC [Example 2-74],effectively shortened
19,COC(=O)Cc1c(C)nn(-c2cccnc2)c1-c1ccc(C(F)(F)F)cn1 [Example 2-144],effectively shortened
20,COC(=O)Cc1c(C)nn(-c2cccnc2)c1-c1ccsc1 [Example 2-63],effectively shortened
21,COC(=O)Cc1c(C)nn(-c2cccnc2)c1-c1cc(C)ccn1 [Example 2-136],effectively shortened
